# Counter-ions that a name gives are not always drawn.
# Experiments:
# [1] = Drug distribution to each tissue in rats (oral mucosal vs oral administration); format: in vivo, Rats (male Wistar)
# Procedure: Rats (9-week old male Wistar rats, body weight: 172 to 205 g) were fixed at the dorsal position under urethane (1.25 g/kg i.p.) anesthesia. The test preparation was administered, and plasma and tissues (minor salivary glands, stomach, small intestine, liver, kidney) were collected 0.5, 1, 2, 4 and 8 hours later for observation of the condition of the application site of the preparation and measurement of the concentration in each tissue. The surface of the minor salivary glands was rinsed with physiological saline, and contents were removed from the stomach and the small intestine, which were rinsed in physiological saline. Each collected tissue was stored at −40° C. before the measurement. The medicament concentration in each tissue was measured by LC/MS/MS.
# Human Oral Mucosa = test: Influences of pH and additives on drug absorption from human oral mucosa (gargle test); format: in vivo; conditions: healthy volunteers, FIG. 2
# Procedure: Healthy volunteers were made to clean their teeth and then gargle with 10 mL of each test solution (Examples 1 to 4) for 2 minutes, the gargles were collected, and then the oral cavity was washed twice with 10 mL of distilled water for 10 seconds. All the mouth wash was added to the test solution after gargling. The amounts of cevimeline hydrochloride in the test solutions before and after the gargling were measured by HPLC, and the difference between the samples was calculated as the amount of absorption to the oral mucosa.
# [2] = test system: xerostomia caused by Sjogren's syndrome; conditions: oral preparations, cited from earlier work
structure (smiles),measurement,setting,value
"CC1OC2(CS1)CN1CCC2CC1 (racemic) [cevimeline hydrochloride hydrate, (±)-cis-2-methylspiro(1,3-oxathiolane-5,3′-quinuclidine) monohydrochloride monohydrate]",mucosal irritancy at the application site,[1]; oral mucosal administration (patch of Example 9),no mucosal irritancy was observed
same,drug concentration in the stomach,"[1]; oral mucosal administration (patch of Example 9) compared with oral administration, 0.5-8 hours, FIG. 5",lower
same,drug concentration in the small intestine,"[1]; oral mucosal administration (patch of Example 9) compared with oral administration, 0.5-8 hours, FIG. 6",lower
same,drug concentration in the kidney,"[1]; oral mucosal administration (patch of Example 9) compared with oral administration, 0.5-8 hours, FIG. 8",lower
same,drug concentration in the liver,"[1]; oral mucosal administration (patch of Example 9) compared with oral administration, 0.5-8 hours, FIG. 9",lower
same,plasma concentrations,"[1]; oral mucosal administration (patch of Example 9) compared with oral administration, changed less in the initial period, FIG. 10",remained constantly low
same,concentrations in the minor salivary glands,"[1]; oral mucosal administration (patch of Example 9), FIG. 11",markedly high
same,"medicament concentrations in the stomach, small intestine, kidney and liver in the initial period after administration","[1]; oral mucosal administration (patch of Example 9), up to 2 hours",apparently low
same,amount of absorption to the oral mucosa,"Human Oral Mucosa; pH 8.0, triethanolamine/hydrochloric acid buffer compared with McIlvaine buffer, gargle 10 mL for 2 minutes",larger
same,amount absorbed from oral mucosa,"Human Oral Mucosa; pH 8.0 compared with pH 6.0, gargle",more
same,oral mucosal absorbability,"Human Oral Mucosa; triethanolamine concentration of 1.5% compared with 0.3%, pH 8.0, gargle",better
same,saliva secretion promoting effect,[2]; JP 61-280497 and 06-024981,confirmed
same,adverse reactions in the digestive system,[2]; may cause,"nausea, abdominal pain, and vomiting"

# — patent US20110150974A1, “Agent For Oral Mucosal Administration” (DAIICHI PHARMACEUTICAL CO., LTD., priority 2004, published 2011)
